Data: PubChem BioAssay AID2060909 (Molecular Pharmacology Branch, DTP, NCI, 2025)

Test system: 362531-283-R-J2-PDC complex spheroid viability
Assay: Anticancer human tumor 362531-283-R-J2-PDC patient-derived colon adenocarcinoma cell line growth inhibition [RAS]
Details: for IC50: curve of first compound; for viability, T/C: stronger effect = lower value
Procedure, shortened: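 Multi-cell-type spheroids: tumor cells plus HUVEC endothelial cells and mesenchymal stem cells. RAS-pathway inhibitors were combined with targeted agents, each dosed in half-log steps down from clinical Cmax, or from 10 microM when Cmax was unknown.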

[1] = second compound 0.0316 µM, first compound 0.0316 µM
[2] = second compound 0.0316 µM, first compound 0.1 µM
[3] = second compound 0.0316 µM, first compound 0.316 µM
[4] = second compound 0.0316 µM, first compound 1 µM
[5] = second compound 0.1 µM, first compound 0.0316 µM
[6] = second compound 0.1 µM, first compound 0.1 µM
[7] = second compound 0.1 µM, first compound 0.316 µM
[8] = second compound 0.1 µM, first compound 1 µM
[9] = second compound 0.316 µM, first compound 0.0316 µM
[10] = second compound 0.316 µM, first compound 0.1 µM
[11] = second compound 0.316 µM, first compound 0.316 µM
[12] = second compound 0.316 µM, first compound 1 µM
[13] = second compound 1 µM, first compound 0.0316 µM
[14] = second compound 1 µM, first compound 0.1 µM
[15] = second compound 1 µM, first compound 0.316 µM
[16] = second compound 1 µM, first compound 1 µM
[17] = second compound 3.16 µM, first compound 0.0316 µM
[18] = second compound 3.16 µM, first compound 0.1 µM
[19] = second compound 3.16 µM, first compound 0.316 µM
[20] = second compound 3.16 µM, first compound 1 µM
[21] = second compound 10 µM, first compound 0.0316 µM
[22] = second compound 10 µM, first compound 0.1 µM
[23] = second compound 10 µM, first compound 0.316 µM
[24] = second compound 10 µM, first compound 1 µM
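Note: spheroids exposed to the agents for 7 days before readout.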
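Throughout, for viability, T/C: luminescence viability as percent of DMSO vehicle control wells.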

In the case of `CC(=O)OC12COC1CC(O)C1(C)C(=O)C(O)C3=C(C)C(OC(=O)C(O)C(NC(=O)OC(C)(C)C)c4ccccc4)CC(O)(C(OC(=O)c4ccccc4)C21)C3(C)C` (stereo unspecified) + C#Cc1c(F)ccc2cc(O)cc(-c3ncc4c(N5CC6CCC(C5)N6)nc(OCC56CCCN5CC(F)C6)nc4c3F)c12, the IC50 (second compound 0.0316 µM) is reported as 169 nM, the IC50 (second compound 0.1 µM) is reported as 170 nM and the IC50 (second compound 0.316 µM) is reported as 140 nM. The IC50 (second compound 1 µM) was 103 nM, the IC50 (second compound 3.16 µM) was 54.3 nM and the IC50 (second compound 10 µM) was < 31.6 nM. For the same compound, the viability, T/C [1] was 83.2%, the viability, T/C [2] was 76.4% and the viability, T/C [3] was 18.4%. It also gave a viability, T/C [4] of 14%, a viability, T/C (second compound 0.0316 µM, first compound 3.16 µM) of 14.6% and a viability, T/C (second compound 0.0316 µM, first compound 10 µM) of 18.5%. It also gave a viability, T/C [5] of 81.9%, a viability, T/C [6] of 80.5% and a viability, T/C [7] of 13.6%. For the same compound, the viability, T/C [8] was 13.6%, the viability, T/C (second compound 0.1 µM, first compound 3.16 µM) was 13.4% and the viability, T/C (second compound 0.1 µM, first compound 10 µM) was 15.5%. The viability, T/C [9] was 90.9%, the viability, T/C [10] was 64.4% and the viability, T/C [11] was 15.1%. For the same compound, the viability, T/C [12] was 11.7%, the viability, T/C (second compound 0.316 µM, first compound 3.16 µM) was 12.9% and the viability, T/C (second compound 0.316 µM, first compound 10 µM) was 11.8%. It also gave a viability, T/C [13] of 81.2%, a viability, T/C [14] of 50.8% and a viability, T/C [15] of 13.6%. It also gave a viability, T/C [16] of 14.6%, a viability, T/C (second compound 1 µM, first compound 3.16 µM) of 13.6% and a viability, T/C (second compound 1 µM, first compound 10 µM) of 13.1%. It also gave a viability, T/C [17] of 65.6%, a viability, T/C [18] of 32.4% and a viability, T/C [19] of 14.2%. The viability, T/C [20] was 15%, the viability, T/C (second compound 3.16 µM, first compound 3.16 µM) was 13.5% and the viability, T/C (second compound 3.16 µM, first compound 10 µM) was 13.5%. For the same compound, the viability, T/C [21] was 32.3%, the viability, T/C [22] was 15.6% and the viability, T/C [23] was 13.5%. The viability, T/C [24] was 15.1%, the viability, T/C (second compound 10 µM, first compound 3.16 µM) was 13.6% and the viability, T/C (second compound 10 µM, first compound 10 µM) was 12.5%.
With `CC1(C)CCC(Nc2ncc(C(F)(F)F)c(-c3c[nH]c4c(P(C)(C)=O)c(C#N)ccc34)n2)CN1` (stereo unspecified) + C#Cc1c(F)ccc2cc(O)cc(-c3ncc4c(N5CC6CCC(C5)N6)nc(OCC56CCCN5CC(F)C6)nc4c3F)c12 the IC50 (second compound 0.0316 µM) was > 300 nM, the IC50 (second compound 0.1 µM) was > 300 nM and the IC50 (second compound 0.316 µM) was > 300 nM. For the same compound, the IC50 (second compound 1 µM) was > 300 nM, the IC50 (second compound 3.16 µM) was > 300 nM and the IC50 (second compound 10 µM) was > 300 nM. For the same compound, the viability, T/C (second compound 0.0316 µM, first compound 0.000949 µM) was 97%, the viability, T/C (second compound 0.0316 µM, first compound 0.003 µM) was 95.6% and the viability, T/C (second compound 0.0316 µM, first compound 0.00949 µM) was 98.5%. It also gave a viability, T/C (second compound 0.0316 µM, first compound 0.03 µM) of 92.3%, a viability, T/C (second compound 0.0316 µM, first compound 0.0949 µM) of 107% and a viability, T/C (second compound 0.0316 µM, first compound 0.3 µM) of 114%. It also gave a viability, T/C (second compound 0.1 µM, first compound 0.000949 µM) of 107%, a viability, T/C (second compound 0.1 µM, first compound 0.003 µM) of 85.5% and a viability, T/C (second compound 0.1 µM, first compound 0.00949 µM) of 90.4%. The viability, T/C (second compound 0.1 µM, first compound 0.03 µM) was 95.8%, the viability, T/C (second compound 0.1 µM, first compound 0.0949 µM) was 101% and the viability, T/C (second compound 0.1 µM, first compound 0.3 µM) was 99.5%. For the same compound, the viability, T/C (second compound 0.316 µM, first compound 0.000949 µM) was 95.7%, the viability, T/C (second compound 0.316 µM, first compound 0.003 µM) was 88.2% and the viability, T/C (second compound 0.316 µM, first compound 0.00949 µM) was 88.8%. It also gave a viability, T/C (second compound 0.316 µM, first compound 0.03 µM) of 90.2%, a viability, T/C (second compound 0.316 µM, first compound 0.0949 µM) of 97.4% and a viability, T/C (second compound 0.316 µM, first compound 0.3 µM) of 93.8%. It also gave a viability, T/C (second compound 1 µM, first compound 0.000949 µM) of 80.5%, a viability, T/C (second compound 1 µM, first compound 0.003 µM) of 89.3% and a viability, T/C (second compound 1 µM, first compound 0.00949 µM) of 83.4%. For the same compound, the viability, T/C (second compound 1 µM, first compound 0.03 µM) was 93.5%, the viability, T/C (second compound 1 µM, first compound 0.0949 µM) was 80.9% and the viability, T/C (second compound 1 µM, first compound 0.3 µM) was 82.9%. For the same compound, the viability, T/C (second compound 3.16 µM, first compound 0.000949 µM) was 68.4%, the viability, T/C (second compound 3.16 µM, first compound 0.003 µM) was 65.9% and the viability, T/C (second compound 3.16 µM, first compound 0.00949 µM) was 70.9%. It also gave a viability, T/C (second compound 3.16 µM, first compound 0.03 µM) of 74%, a viability, T/C (second compound 3.16 µM, first compound 0.0949 µM) of 61.2% and a viability, T/C (second compound 3.16 µM, first compound 0.3 µM) of 71.1%. It also gave a viability, T/C (second compound 10 µM, first compound 0.000949 µM) of 56.4%, a viability, T/C (second compound 10 µM, first compound 0.003 µM) of 49.7% and a viability, T/C (second compound 10 µM, first compound 0.00949 µM) of 54.8%. For the same compound, the viability, T/C (second compound 10 µM, first compound 0.03 µM) was 55%, the viability, T/C (second compound 10 µM, first compound 0.0949 µM) was 41.4% and the viability, T/C (second compound 10 µM, first compound 0.3 µM) was 54.3%.
`CCN1CCN(Cc2ccc(Nc3ncc(F)c(-c4cc(F)c5nc(C)n(C(C)C)c5c4)n3)nc2)CC1` + C#Cc1c(F)ccc2cc(O)cc(-c3ncc4c(N5CC6CCC(C5)N6)nc(OCC56CCCN5CC(F)C6)nc4c3F)c12 gave an IC50 (second compound 0.0316 µM) of 504 nM, an IC50 (second compound 0.1 µM) of 356 nM and an IC50 (second compound 0.316 µM) of 187 nM. The IC50 (second compound 1 µM) was 104 nM, the IC50 (second compound 3.16 µM) was 24.1 nM and the IC50 (second compound 10 µM) was < 3.16 nM. For the same compound, the viability, T/C (second compound 0.0316 µM, first compound 0.00316 µM) was 89.4%, the viability, T/C (second compound 0.0316 µM, first compound 0.01 µM) was 98.7% and the viability, T/C [1] was 98.8%. It also gave a viability, T/C [2] of 70.3%, a viability, T/C [3] of 62.4% and a viability, T/C [4] of 36.9%. It also gave a viability, T/C (second compound 0.1 µM, first compound 0.00316 µM) of 93.7%, a viability, T/C (second compound 0.1 µM, first compound 0.01 µM) of 93.6% and a viability, T/C [5] of 81.4%. For the same compound, the viability, T/C [6] was 63%, the viability, T/C [7] was 57.4% and the viability, T/C [8] was 28.8%. For the same compound, the viability, T/C (second compound 0.316 µM, first compound 0.00316 µM) was 93.8%, the viability, T/C (second compound 0.316 µM, first compound 0.01 µM) was 89.2% and the viability, T/C [9] was 85.4%. It also gave a viability, T/C [10] of 58.7%, a viability, T/C [11] of 42% and a viability, T/C [12] of 21.9%. The viability, T/C (second compound 1 µM, first compound 0.00316 µM) was 86.2%, the viability, T/C (second compound 1 µM, first compound 0.01 µM) was 88% and the viability, T/C [13] was 74.1%. The viability, T/C [14] was 50.5%, the viability, T/C [15] was 29.8% and the viability, T/C [16] was 20%. It also gave a viability, T/C (second compound 3.16 µM, first compound 0.00316 µM) of 77.6%, a viability, T/C (second compound 3.16 µM, first compound 0.01 µM) of 60.2% and a viability, T/C [17] of 48.5%. For the same compound, the viability, T/C [18] was 32.1%, the viability, T/C [19] was 22.4% and the viability, T/C [20] was 17%. For the same compound, the viability, T/C (second compound 10 µM, first compound 0.00316 µM) was 45.2%, the viability, T/C (second compound 10 µM, first compound 0.01 µM) was 42.5% and the viability, T/C [21] was 30.9%. It also gave a viability, T/C [22] of 23.6%, a viability, T/C [23] of 16.7% and a viability, T/C [24] of 12.2%.
